Reference: PubChem BioAssay AID179 (DTP/NCI, 2004)
Activity calls are given as the source filed them.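 Rule for the calls: active = compounds giving half or more protection of infected cells from virus-caused growth loss, again on retest; inactive = the rest.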

Test system: CEM cells HIV-1 protection, formazan growth assay
Assay: NCI AIDS Antiviral Assay
Conditions: for IC50: measured here: growth of uninfected CEM cells
Procedure, shortened: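 CEM (human) cells, HIV-1 infected vs uninfected, 5-point dosing, formazan growth read-out. Retest threshold 50% protection.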

| SMILES | EC50 [µM] | IC50 [µM] | outcome |
| --- | --- | --- | --- |
| O=C1CN(CCN2CCCCC2)CC(=O)N2Cc3ccccc3CN12 | > 200 | > 200 |  |
| CSC[C@H](NC(=O)COc1cccc2cnccc12)C(=O)NC(Cc1ccccc1)C(O)C(=O)N1CSC[C@H]1C(=O)NC(C)(C)C (stereo not given in full) | 0.0513 | 10 |  |
| C[C@H](CCc1nc(C#N)c(N)o1)[C@H]1CC[C@H]2[C@@H]3[C@@H](O)CC4C[C@@H](O)CC[C@]4(C)[C@H]3C[C@@H](O)[C@]12C (stereo not given in full) | > 200 | 16.6 |  |
| Cn1c(=O)nc2n(-c3ccc(F)c(F)c3)c3ccccc3nc-2c1=O |  |  | inactive |
| CN(C)c1ccc(/C=C/c2cc[n+]3cc(-c4ccccc4)sc3n2)cc1 | > 1.51 | 0.324 |  |
| CCCCNC(C)(C)C(SSSC(c1cccs1)C(C)(C)NCCCC)c1cccs1 (stereo not given) | > 200 | 20 |  |
| CN(O)C1CC(=O)OC1CO[Si](C)(C)C(C)(C)C (stereo not given) | > 200 | 51.3 |  |
| O=C(Cc1ccccc1)NN1C(=O)/C(=C\c2cccc([N+](=O)[O-])c2)SC1=Nc1ccccc1 | > 56.2 | > 56.2 |  |
| CC1C[N+]2(CNC(=O)C3=C(O)C4(O)C(=O)C5=C(O)c6c(O)cccc6C(C)(O)C5CC4C(N(C)C)C3=O)CC(C)O[B-]2(c2ccccc2)O1 (stereo not given) | > 138 | 105 |  |
| CC(=O)O[C@H]1C[C@@H]2OC3C=C(C)CCC3(C)[C@@]1(C)[C@@]21CO1 (stereo not given in full) | > 2 | 0.105 |  |
| CCOC(=O)C(c1c(O)c2ccccc2oc1=O)c1c(O)c2ccccc2oc1=O | > 617 | 64.6 |  |
| OC[C@H]1S[C@H](c2ccccc2)C[C@H]1O | > 200 | > 200 |  |
| O=C(O)c1ccc(O)c(N=Nc2cc(S(=O)(=O)O)c3ccccc3c2O)c1 | > 25.7 | > 25.7 |  |
| C=CCn1c(=O)c(-c2ccccc2)c(O)c2ccccc21 | > 200 | > 200 |  |
| Nc1ccc(N)c(N2C(=O)c3ccccc3C2=O)c1 | > 200 | > 200 |  |
| c1cc2cc(c1)CNCCNCCNCc1cccc(c1)CNCCNCCNC2 | > 138 | 60.3 |  |
| C[S+]1Cc2nc3ccccc3n2C1c1c(F)cccc1F (stereo not given) | > 178 | 79.4 |  |
| CC(C)(CCc1nc2ccccc2[nH]1)C(=O)O | > 200 | > 200 |  |
| O=Cc1ccc(C=O)n1C1CCOC1=O (stereo not given) |  |  | inactive |
| CC(CC1c2ccccc2CCc2ccccc21)CN(C)C (stereo not given) | > 200 | 33.1 |  |
| CCOC(=O)NC1C2CC(=O)OC(O2)C1OC(C)=O (stereo not given) | > 912 | 39.8 |  |
| O=C(/C(=C/c1ccc(Br)cc1)c1ccccc1)c1ccccc1 | > 14.5 | > 14.5 |  |

| SMILES | EC50 [µM] | IC50 [µM] | outcome |
| --- | --- | --- | --- |
| N=c1nnc2ccc(Cl)cc2n1O | > 200 | 33.1 |  |
| CC(C)(CCNc1c2ccccc2nc2cccc([N+](=O)[O-])c12)[N+](C)(C)[O-] | > 0.2 | 0.12 |  |
| CC1(O)OC(=O)C2=C1CCC1C2CCC2(C)C(O)CCC12 (stereo not given) | > 200 | > 200 |  |
| O=C1C2=C(CCCCC2)C2CCCCC12O (stereo not given) | > 200 | > 200 |  |
| CCC12C=CCN(CCc3c([nH]c4ccccc34)/C=C\1)C2 (stereo not given) | > 295 | > 295 |  |
| c1c(N2CCOCC2)ssc1=[N+]1CCOCC1 |  |  | inactive |
| O=C(Cn1ccnc1[N+](=O)[O-])N(CCO)CCO | > 977 | > 977 |  |
| COc1cccc2c1C(=O)c1c(O)c3c(c(O)c1C2=O)C[C@@](O)(C(C)=O)C[C@@H]3OC1CC(N)C(O)C(C)O1 (stereo not given in full) | > 4.47 | 0.0038 |  |
| CCC(C)N1CN(c2ccccc2)C2(CCN(CCCSc3ccc(F)cc3)CC2)C1=O (stereo not given) | > 200 | 4.17 |  |
| Cc1ccc(C)c(N2C/C(=N\NC(=O)CC#N)C(c3nc4ccccc4s3)C(=O)C2=O)c1 (stereo not given) |  |  | inactive |
| COc1ccc2c(c1)CSC(c1ccccc1)C2=O (stereo not given) | > 97.7 | 55 |  |
| COC(=O)C1=C(O)c2cc(C)c(C)c(C#N)c2NC(=O)C1 | > 200 | > 200 |  |
| N#Cc1nc(C2SCCCS2)oc1N | > 200 | > 200 |  |
| COc1cc2c(c(O)c1OC)C(=O)[C@@H]1CCC(=O)N1C2 | > 123 | 112 |  |
| O=C(NC1CCCCC1)c1n[nH]nc1Cl | > 200 | > 200 |  |
| COC(=O)c1cc(=O)nc2cc3cccccc3n12 |  |  | inactive |
| CNc1ccc(F)cc1SSc1cc(F)ccc1NC | > 200 | 4.79 |  |
| O=C1CCCC/C1=C/c1ccccc1 | > 200 | 12.9 |  |
| Nc1nc(NC2CC2)c2ncn(C3C=CC(CO)CC3)c2n1 (stereo not given) | > 200 | > 200 |  |
| NNC(=O)N/N=C1\C(=O)N(c2nccs2)C(=O)C(=O)C1c1nc2ccccc2s1 (stereo not given) | > 2.45 | > 2.45 |  |
| COc1ccc(/C(=N\N)C2=NNC3(CCCCC3)NN2)cc1 |  |  | inactive |
